According to the NIST ThermoML archive (doi:10.1021/je500380x):

Test: mn = molality of the nth substance listed, in mol/kg
Conditions: 100 kPa, Liquid; for electrical conductivity: Alternating current cell with electrodes; for viscosity: Falling or rolling sphere viscometry; for mass density: Vibrating tube method

CCC(=O)OCCN1CCNCC1 [2-(piperazin-1-yl)ethyl propionate] + CCO
Conditions	electrical conductivity [S/m]	mass density [kg/m3]	viscosity [mPa·s]
293.15 K, m1 = 0.05	0.018	792.31	1.231
293.15 K, m1 = 0.1	0.0284	795.01	1.291
293.15 K, m1 = 0.1985	0.0443	800.36	1.369
293.15 K, m1 = 0.3005	0.0571	806.02	1.473
293.15 K, m1 = 0.4001	0.0671	811.4	1.577
293.15 K, m1 = 0.5007	0.0769	817.08	1.711
293.15 K, m1 = 0.5998	0.0851	822.5	1.845
293.15 K, m1 = 0.7002	0.092	828.2	2
293.15 K, m1 = 0.8	0.0988	833.89	2.198
293.15 K, m1 = 0.8957	0.1048	839.61	2.363
293.15 K, m1 = 1	0.1105	845.48	2.582
293.15 K, m1 = 1.198	0.119	857.06	3.081
293.15 K, m1 = 1.401	0.126	869.49	3.774
293.15 K, m1 = 1.602	0.13	881.43	4.697
293.15 K, m1 = 1.8	0.1314	893.69	5.93
293.15 K, m1 = 2.001	0.1308	906.93	7.934
293.15 K, m1 = 2.198	0.127	918.83	9.733
293.15 K, m1 = 2.397	0.121	931.94	12.86
293.15 K, m1 = 2.597	0.1137	945.08	18.8
293.15 K, m1 = 2.796	0.106	958.17	25.23
293.15 K, m1 = 3.006	0.0951	972.39	37.45
298.15 K, m1 = 0.05	0.0186	788.01	1.12
298.15 K, m1 = 0.1	0.0296	790.73	1.173
298.15 K, m1 = 0.1985	0.0465	796.08	1.241
298.15 K, m1 = 0.3005	0.06	801.71	1.333
298.15 K, m1 = 0.4001	0.071	807.14	1.424
298.15 K, m1 = 0.5007	0.0816	812.78	1.541
298.15 K, m1 = 0.5998	0.0904	818.26	1.658
298.15 K, m1 = 0.7002	0.0977	823.96	1.793
298.15 K, m1 = 0.8	0.106	829.67	1.967
298.15 K, m1 = 0.8957	0.1123	835.39	2.11
298.15 K, m1 = 1	0.119	841.3	2.298
298.15 K, m1 = 1.198	0.129	852.92	2.729
298.15 K, m1 = 1.401	0.137	865.42	3.319
298.15 K, m1 = 1.602	0.1415	877.35	4.106
298.15 K, m1 = 1.8	0.1443	889.66	5.146
298.15 K, m1 = 2.001	0.1447	902.95	6.811
298.15 K, m1 = 2.198	0.1423	914.88	8.295
298.15 K, m1 = 2.397	0.138	928.01	10.83
298.15 K, m1 = 2.597	0.1304	941.19	15.64
298.15 K, m1 = 2.796	0.1237	954.36	20.7
298.15 K, m1 = 3.006	0.1136	968.58	30.28
303.15 K, m1 = 0.05	0.0191	783.69	1.021
303.15 K, m1 = 0.1	0.0305	786.41	1.069
303.15 K, m1 = 0.1985	0.0483	791.76	1.2
303.15 K, m1 = 0.3005	0.0627	797.4	1.209
303.15 K, m1 = 0.4001	0.0745	802.85	1.289
303.15 K, m1 = 0.5007	0.0858	808.5	1.392
303.15 K, m1 = 0.5998	0.0954	813.99	1.495
303.15 K, m1 = 0.7002	0.1036	819.7	1.613
303.15 K, m1 = 0.8	0.1125	825.43	1.766
303.15 K, m1 = 0.8957	0.119	831.17	1.89
303.15 K, m1 = 1	0.127	837.09	2.054
303.15 K, m1 = 1.198	0.139	848.73	2.427
303.15 K, m1 = 1.401	0.149	861.28	2.935
303.15 K, m1 = 1.602	0.155	873.24	3.606
303.15 K, m1 = 1.8	0.16	885.6	4.489
303.15 K, m1 = 2.001	0.1614	898.93	5.886
303.15 K, m1 = 2.198	0.159	910.89	7.117
303.15 K, m1 = 2.397	0.155	924.07	9.203
303.15 K, m1 = 2.597	0.147	937.29	13.25
303.15 K, m1 = 2.796	0.14	950.5	17.19
303.15 K, m1 = 3.006	0.1307	964.74	24.65
308.15 K, m1 = 0.05	0.0194	–	0.934
308.15 K, m1 = 0.1	0.0313	–	0.976
308.15 K, m1 = 0.1985	0.0499	–	1.028
308.15 K, m1 = 0.3005	0.0652	–	1.1
308.15 K, m1 = 0.4001	0.0776	–	1.171
308.15 K, m1 = 0.5007	0.0899	–	1.261
308.15 K, m1 = 0.5998	0.1004	–	1.352
308.15 K, m1 = 0.7002	0.109	–	1.456
308.15 K, m1 = 0.8	0.119	–	1.59
308.15 K, m1 = 0.8957	0.126	–	1.698
308.15 K, m1 = 1	0.135	–	–
308.15 K, m1 = 1.198	0.148	–	–
308.15 K, m1 = 1.401	0.1609	–	–
308.15 K, m1 = 1.602	0.169	–	–
308.15 K, m1 = 1.8	0.1747	–	–
308.15 K, m1 = 2.001	0.178	–	–
308.15 K, m1 = 2.198	0.177	–	–
308.15 K, m1 = 2.397	0.173	–	–
308.15 K, m1 = 2.597	0.165	–	–
308.15 K, m1 = 2.796	0.158	–	–
308.15 K, m1 = 3.006	0.148	–	–
